{"source": "patent US12152012B2", "about": "“BRAG2 inhibitors and applications thereof” (CENTRE NATIONAL DE LA RECHERCHE SCIENTIFIQUE, priority 2018, dated 2024)", "biological_target": "T1, ARNO (Sec7PH construct) (Homo sapiens, UniProt Q99418)", "T1 construct": "BIG1^DcbHusSec7 (2-888) and ARNO^Sec7PH (50-399); made in house", "T1 sequence (Q99418 50-399 isoform Q99418-2)": "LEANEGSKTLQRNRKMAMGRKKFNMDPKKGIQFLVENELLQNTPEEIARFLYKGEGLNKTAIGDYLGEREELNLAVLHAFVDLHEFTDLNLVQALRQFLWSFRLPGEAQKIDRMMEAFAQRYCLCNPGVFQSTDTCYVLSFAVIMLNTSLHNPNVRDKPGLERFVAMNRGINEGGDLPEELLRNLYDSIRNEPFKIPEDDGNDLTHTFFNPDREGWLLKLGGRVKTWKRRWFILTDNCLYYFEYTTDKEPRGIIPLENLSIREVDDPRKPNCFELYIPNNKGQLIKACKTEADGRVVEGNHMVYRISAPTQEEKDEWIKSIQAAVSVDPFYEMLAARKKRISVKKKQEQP", "experiment": "Nucleotide exchange kinetics on liposomes, activation of myristoylated Arf1", "assay_type": "biochemical", "settings": "50 μM", "method": "The effect of Bragsin1 on the GEF efficiency of representative human ArfGEFs was evaluated by fluorescence kinetics using highly purified recombinant Arf GTPases and ArfGEFs. In a first series of assays, the Sec7 domains of BIG1, a Golgi ArfGEF, and of ARNO, EFA6a and BRAG2, which function at the plasma membrane, were used. When tested in solution, Bragsin1 had no effect on the activation of Arf1 by any of these Sec7 domains (FIGS. 2a and 14). Separately, we reconstituted the activation of myristoylated Arf1 by the same ArfGEFs on liposomes using ArfGEF constructs that contain a membrane-binding domain (DCB-HUS domain for BIG1, PH domains for the other GEFs). […] BRAG2 activates several Arf isoforms, including the plasma membrane-located Arf6 isoform. […] Bragsin1 and Bragsin2 have the same IC50 towards BRAG2 ([…]) according to dose-response analysis, confirming that Bragsin1 and Bragsin2 can be used interchangeably (FIG. 2d). The specific inhibition of BRAG2 by Bragsin in vitro predicts that BRAG2 silencing by siRNA should yield the same phenotype as treatment by the small molecule. Silencing of BRAG2 induced the redistribution of TGN46 into tubular or punctate structures, which phenocopied the effects induced by Bragsin (FIGS. 2e, 17 and 18). […] Silencing of ARNO, which is located at the plasma membrane, had no effect on TGN46 distribution. Overexpression of BRAG2-mCherry rescued the dispersion of the TGN46 structure induced by Bragsin, which is consistent with the silencing experiments (FIG. 2f). Bragsin is a specific inhibitor of the ArfGEF BRAG2 in vitro and in cells according to these experiments. These oexperiments identify a mechanism of inhibition that requires the membrane to manifests itself.\nBovine Δ17Arf1 and human Δ13Arf6, full-length myristoylated Arf1 and Arf6, human BRAG2^Sec7 (390-594) and BRAG2^Sec7PH (390-811), human EFA6^Sec7 (527-727) and EFA6^Sec7PHCt (527-1024), ARNO^Sec7 (50-256), BIG1^Sec7 (691-889), BIG1^DcbHusSec7 (2-888) and ARNO^Sec7PH (50-399) were expressed and purified as in (Benabdi, S. et al. Family-wide Analysis of the Inhibition of Arf Guanine Nucleotide Exchange Factors with Small Molecules: Evidence of Unique Inhibitory Profiles. Biochemistry 56, 5125-5133 (2017)) and references therein. BRAG2^Sec7PH mutants were purified as the wild type protein. Purification of human full-length Rac1 carrying a 6xHis tag in C-terminus and human TRIO^DH1PH1 (1232-1550) was described in (Peurois, F. et al. Characterization of the activation of small GTPases by their GEFs on membranes using artificial membrane tethering. Biochem J 474, 1259-1272 (2017)).\nLipids (of natural origin) were from Avanti Polar Lipids, except NBD-PE from Sigma. Liposomes were prepared as described in (Aizel, K. et al. Integrated conformational and lipid-sensing regulation of endosomal ArfGEF BRAG2. PLOS Biol 11, e1001652 (2013)) and extruded at 0.2 μm. For the Arf GEF specificity studies, liposomes contained 48% phosphatidylcholine (PC), 20% phosphatidylethanolamine (PE), 30% phosphatidylserine (PS) and 2% phosphatidylinositol-4,5-bisphosphate (PIP2). For Rac activation assay, liposomes contained 43% PC, 20% PE, 10% PS, 20% cholesterol, 2% PIP2, 5% NiNTA lipids and 0.2% NBD-PE. To exclude aggregation or disruption of the liposomes, their size distribution was controlled before and after experiments by dynamic light scattering as described in (Benabdi, S. et al. Biochemistry 56, 5125-5133 (2017)). Dose-response and flotation assays were carried out with liposomes containing 37.9% PC, 20% PE, 20% PS, 2% PIP2, 20% cholesterol and 0.1% NBD-PE. Flotation assays were carried out as in 18.\nNucleotide exchange kinetics were monitored by tryptophan fluorescence with excitation/emission wavelengths of 292/340 nm using a Cary Eclipse fluorimeter (Varian) at 37° C. and under continuous stirring as described in ^50,51. […]", "data": [{"compound": "Cc1ccc2oc(C(F)(F)F)cc(=O)c2c1[N+](=O)[O-]", "note": "[Bragsin1, 6-methyl-5-nitro-2-(trifluoromethyl)-4H-chromen-4-one]", "values": [{"measurement": "Effect on ArfGEF activity on liposomes", "result": "no effect"}]}]}
